Patent publication US20220227773A1, “FUSED RING COMPOUND, PREPARATION METHOD THEREFOR AND USE THEREOF” (SHANGHAI INSTITUTE OF MATERIA MEDICA, CHINESE ACADEMY OF …, priority 2019, published 2022)
Counter-ions that a name gives are not always drawn. Like-named read-outs stand apart in the source and are kept apart here.

Columns and labels:
[1] = molecular target: T1, hSERT (5-HTT) in HEK293-hSERT cells (Homo sapiens, UniProt P31645); assay: 5-HTT reuptake activity assay (fluorescence neurotransmitter transporter uptake kit); assay type: cell-based; conditions: serotonin reuptake inhibition
T1 construct: expressed in transfected cells; host or cells: HEK293

mice = assay: Forced swimming test (FST) in mice; assay type: in vivo; conditions: Mus musculus
Protocol: 3. In Vivo Drug Efficacy Test (Mouse Forced Swimming Model)
Experimental animals: C57BL/6 mice (Shanghai Xipuer-Bikai Experimental Animal Co., Ltd.), male, 6 weeks old, weighing 15-20 g. ICR mice (Shanghai Xipuer-Bikai Experimental Animal Co., Ltd.), male, 6 weeks old, weighing 20-25 g. All the ordered mice were fed in a standard environment for 2-3 weeks before test.
Forced Swimming Test (FST): in the forced swimming apparatus, the water level is 45 cm, and the water temperature is 25° C. Before the experiment, the mice were placed in the experimental room for 1 h for adapting to the environment. At the beginning of the experiment, the mice were placed in the apparatus for 6min, and the whole process was recorded with a camera. When analyzing the data, only the immobility time of the mice in the last 4 min was counted, and the result was expressed by mean±SD.
The results were analyzed by one-way analysis of variance. […] FST: Forced swimming test; TST: Tail suspension test.

[2] = molecular target: T2, human recombinant 5-HT3 receptor (Homo sapiens, UniProt P46098); assay: 5-HT3 receptor affinity assay (3H-BRL 43694 radioligand binding); conditions: read-out: inhibition (%) at 1 μM
T2 construct: expressed in transfected cells; host or cells: HEK293 (membrane preparation)
T2 sequence (P46098 24-478): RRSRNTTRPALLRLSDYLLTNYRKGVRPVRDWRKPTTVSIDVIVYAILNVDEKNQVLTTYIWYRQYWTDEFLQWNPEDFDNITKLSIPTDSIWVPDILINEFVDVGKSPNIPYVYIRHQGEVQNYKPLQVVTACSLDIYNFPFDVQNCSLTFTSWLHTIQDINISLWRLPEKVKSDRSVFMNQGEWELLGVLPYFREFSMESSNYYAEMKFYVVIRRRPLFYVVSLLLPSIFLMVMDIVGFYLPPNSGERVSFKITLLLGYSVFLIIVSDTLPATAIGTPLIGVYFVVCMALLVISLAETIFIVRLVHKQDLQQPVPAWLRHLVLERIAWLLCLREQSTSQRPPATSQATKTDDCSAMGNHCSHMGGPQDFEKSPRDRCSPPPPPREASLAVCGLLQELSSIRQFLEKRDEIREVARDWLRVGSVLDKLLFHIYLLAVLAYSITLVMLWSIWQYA

[3] = ip, read-out: Effective dose (mg/kg)
[4] = 1 μM compound, 0.5 nM 3H-BRL 43694, HEK293 membranes
[5] = po, read-out: Effective dose (mg/kg)
[6] = po, FST, dose significantly reducing immobility time of mice, read-out: Effective dose

T1 sequence (P31645 whole entry): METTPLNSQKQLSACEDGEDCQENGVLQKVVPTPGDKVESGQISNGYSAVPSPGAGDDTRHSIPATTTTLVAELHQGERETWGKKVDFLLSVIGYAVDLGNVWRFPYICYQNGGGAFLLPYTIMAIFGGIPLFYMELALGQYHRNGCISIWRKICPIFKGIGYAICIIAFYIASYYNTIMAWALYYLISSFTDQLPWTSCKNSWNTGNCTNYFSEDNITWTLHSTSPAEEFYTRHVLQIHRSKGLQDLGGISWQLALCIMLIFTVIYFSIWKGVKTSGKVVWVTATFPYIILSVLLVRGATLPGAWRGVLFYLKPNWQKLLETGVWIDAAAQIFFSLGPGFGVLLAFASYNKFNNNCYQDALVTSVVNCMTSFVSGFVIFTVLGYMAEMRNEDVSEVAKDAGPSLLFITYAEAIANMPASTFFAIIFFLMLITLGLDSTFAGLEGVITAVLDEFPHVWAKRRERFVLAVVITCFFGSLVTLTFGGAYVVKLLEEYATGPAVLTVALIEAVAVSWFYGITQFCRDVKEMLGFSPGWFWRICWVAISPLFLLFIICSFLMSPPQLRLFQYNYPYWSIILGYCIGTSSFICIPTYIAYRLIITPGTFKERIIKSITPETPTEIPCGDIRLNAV

SMILES: Fc1cc(N2CC3CNCC3C2)c2ccsc2c1 (stereo not shown) [Example 69, 2-(6-fluorobenzothiophen-4-yl)octahydropyrrolo[3,4-c]pyrrole dihydrochloride]
- IC50 [1]: < 0.2 µM
- minimal effective dose (mice; [3]): 10 mg/kg

SMILES: Fc1cc(N2CC3CNCC3C2)cc2sccc12 (stereo not shown) [Example 68, 2-(4-fluorobenzo[b]thiophen-6-yl)octahydropyrrolo[3,4-c]pyrrole dihydrochloride]
- IC50 [1]: < 0.2 µM

SMILES: Clc1ccc(C2=CC3CNCC3C2)cc1Cl (stereo not shown) [Example 9, 5-(3,4-chlorophenyl)-1,2,3,3a,4,6a-hexahydrocyclopenta[c]pyrrole hydrochloride]
- IC50 [1]: < 0.2 µM

SMILES: CN1CC2CN(c3ccc(Cl)c(Cl)c3)CC2C1 (stereo not shown) [Example 17, 2-(3,4-dichlorophenyl)-5-methyloctahydropyrrolo[3,4-c]pyrrole]
- inhibition at 1 µM [2, 4]: 93%
- IC50 [1]: < 0.01 µM
- minimal effective dose (mice; [5]): 5 mg/kg

SMILES: CN1CC2C=C(c3ccc4ccccc4c3)CC2C1 (stereo not shown) [Example 57, 2-methyl-5-(naphthalen-2-yl)-1,2,3,3a,4,6a-hexahydrocyclopenta[c]pyrrole]
- IC50 [1]: < 0.05 µM

SMILES: CN1[C@@H]2CC[C@H]1C[C@@H](OC(=O)c1cc(Cl)cc(Cl)c1)C2 [MDL72222, reference compound]
- inhibition at 1 µM [2]: 93%

SMILES: CN1CC2CN(c3cccc4c3CCC(=O)N4)CC2C1 (stereo not shown) [Example 93, 5-(5-methylhexahydropyrrolo[3,4-c]pyrrol-2(1H)-yl)-3,4-dihydroquinolin-2(1H)-one dihydrochloride]
- IC50 [1]: < 0.2 µM

SMILES: Br.CN1CC2CN(c3cccc4sccc34)CC2C1 (stereo not shown) [Example 13, 2-(Benzo[b]thiophen-4-yl)-5-methyloctahydropyrrolo[3,4-c]pyrrole hydrobromide]
- inhibition at 1 µM [2]: 70%
- IC50 [1]: < 0.05 µM
- minimal effective dose (mice; [3]): 5 mg/kg

SMILES: Cc1cccc(N2CC3CNCC3C2)c1C (stereo not shown) [Example 66, 2-(2,3-dimethylphenyl)octahydropyrrolo[3,4-c]pyrrole maleate]
- IC50 [1]: < 0.05 µM

SMILES: Clc1cccc(N2CC3CNCC3C2)c1Cl (stereo not shown) [Example 27, 2-(2,3-dichlorophenyl)octahydropyrrolo[3,4-c]pyrrole maleate]
- inhibition at 1 µM [2]: 104%
- IC50 [1]: < 0.05 µM

SMILES: Cl.c1ccc2cc(C3CC4CNCC4C3)ccc2c1 (stereo not shown) [Example 55, 5-(naphthalen-2-yl)octahydrocyclopenta[c]pyrrole hydrochloride]
- inhibition at 1 µM [2, 4]: 75%
- IC50 [1]: < 0.01 µM
- minimal effective dose (mice; [5]): 5 mg/kg

SMILES: c1cc(N2CC3CCNCCC3C2)c2sccc2c1 (stereo not shown) [Example 43, 2-(Benzo[b]thiophen-7-yl)decahydropyrrolo[3,4-d]azepine maleate]
- IC50 [1]: < 0.05 µM

SMILES: CN1CC2CN(c3ccc(C(F)(F)F)cc3)CC2C1.O=C(O)C(=O)O (stereo not shown) [Example 81, 2-methyl-5-(4-(trifluoromethyl)phenyl)octahydropyrrolo[3,4-c]pyrrole oxalate]
- IC50 [1]: < 0.05 µM
- minimal effective dose (mice; [3]): 10 mg/kg

SMILES: c1ccc2cc(N3CC4CCNCCC4C3)ccc2c1 (stereo not shown) [Example 6, 2-(naphthalen-2-yl)decahydropyrrolo[3,4-d]azepine maleate]
- IC50 [1]: < 0.2 µM

SMILES: c1ccc2c(N3CC4CNCC4C3)csc2c1 (stereo not shown) [Example 23, 2-(Benzo[b]thiophen-3-yl)octahydropyrrolo[3,4-c]pyrrole maleate]
- IC50 [1]: < 0.2 µM

SMILES: CNCC[C@H](Oc1cccc2ccccc12)c1cccs1 [Duloxetine, reference compound]
- minimal effective dose (mice; [5]): 20 mg/kg

SMILES: C1=C(c2cc3ccccc3o2)CC2CNCC12 (stereo not shown) [Example 52, 5-(Benzofuran-2-yl)-1,2,3,3a,4,6a-hexahydrocyclopenta[c]pyrrole hydrochloride]
- IC50 [1]: < 0.2 µM

SMILES: c1cc2cc(N3CCC4CNCC43)ccc2s1 (stereo not shown) [Example 64, 1-(Benzothiophen-5-yl)octahydropyrrolo[3,4-b]pyrrole maleate]
- IC50 [1]: < 0.05 µM

SMILES: CN1CC2CN(c3cccc4ccccc34)CC2C1 (stereo not shown) [Example 26, 2-methyl-5-(naphthalen-1-yl)octahydropyrrolo[3,4-c]pyrrole oxalate]
- inhibition at 1 µM [2, 4]: 76%
- IC50 [1]: < 0.2 µM

SMILES: Fc1ccc2cc(N3CC4CNCC4C3)ccc2c1.O=C(O)/C=C\C(=O)O (stereo not shown) [Example 29, 2-(6-fluoronaphthalen-2-yl)octahydropyrrolo[3,4-c]pyrrole maleate]
- IC50 [1]: < 0.01 µM
- minimal effective dose (mice; [6]): 5 mg/kg

SMILES: C1=C(c2ccc3ccccc3c2)CC2CNCC12 (stereo not shown) [Example 54, 5-(naphthalen-2-yl)-1,2,3,3a,4,6a-hexahydrocyclopenta[c]pyrrole hydrochloride]
- IC50 [1]: < 0.05 µM

SMILES: CN1CC2C=C(c3cc4ccccc4o3)CC2C1 (stereo not shown) [Example 59, 5-(Benzofuran-2-yl)-2-methyl-1,2,3,3a,4,6a-hexahydrocyclopenta[c]pyrrole hydrochloride]
- IC50 [1]: < 0.05 µM

SMILES: CN1CC2CCN(c3ccc4sccc4c3)C2C1 (stereo not shown) [Example 65, 1-(Benzothiophen-5-yl)-5-methyloctahydropyrrolo[3,4-b]pyrrole oxalate]
- IC50 [1]: < 0.05 µM

SMILES: CN1CC2CN(c3ccc4cc(F)ccc4c3)CC2C1.O=C(O)/C=C\C(=O)O (stereo not shown) [Example 30, 2-(6-fluoronaphthalen-2-yl)-5-methyloctahydropyrrolo[3,4-c]pyrrole maleate]
- IC50 [1]: < 0.01 µM
- minimal effective dose (mice; [6]): 20 mg/kg

SMILES: Clc1ccc(N2CC3CCNCCC3C2)cc1Cl (stereo not shown) [Example 42, 2-(3,4-dichlorophenyl)decahydropyrrolo[3,4-d]azepine maleate]
- inhibition at 1 µM [2]: 103%
- IC50 [1]: < 0.01 µM

SMILES: CN(C)CCCC1(c2ccc(F)cc2)OCc2cc(C#N)ccc21 (stereo not shown) [Citalopram, reference compound]
- minimal effective dose (mice; [6]): 20 mg/kg

SMILES: c1ccc2c(C3CC4CNCC4C3)cccc2c1 (stereo not shown) [Example 8, 5-(naphthalen-1-yl)octahydrocyclopenta[c]pyrrole hydrochloride]
- IC50 [1]: < 0.2 µM

SMILES: CN1CC2CN(c3cc(F)cc4sccc34)CC2C1 (stereo not shown) [Example 70, 2-(6-fluorobenzothiophen-4-yl)-5-methyloctahydropyrrolo[3,4-c]pyrrole oxalate]
- IC50 [1]: < 0.05 µM

SMILES: CN1CC2CC(c3cc4ccccc4s3)CC2C1 (stereo not shown) [Example 62, 5-(benzothiophen-2-yl)-2-methyl-octahydrocyclopenta[c]pyrrole hydrochloride]
- IC50 [1]: < 0.05 µM

SMILES: O=C(O)/C=C\C(=O)O.c1cc2cc(N3CC4CNCC4C3)ccc2o1 (stereo not shown) [Example 21, 2-(Benzofuran-5-yl)octahydropyrrolo[3,4-c]pyrrole maleate]
- IC50 [1]: < 0.05 µM
- minimal effective dose (mice; [3]): 3 mg/kg

SMILES: C1=C(c2cccc3ccsc23)CC2CNCC12 (stereo not shown) [Example 48, 5-(Benzothiophen-7-yl)-1,2,3,3a,4,6a-hexahydrocyclopenta[c]pyrrole hydrochloride]
- IC50 [1]: < 0.05 µM

SMILES: Clc1ccc(N2CCC3CNCC3CC2)c(Cl)c1 (stereo not shown) [Example 90, 6-(2,4-dichlorophenyl)decahydropyrrolo[3,4-d]azepine hydrochloride]
- IC50 [1]: < 0.05 µM

SMILES: O=C(O)/C=C\C(=O)O.c1cc2ccc(N3CC4CNCC4C3)cc2s1 (stereo not shown) [Example 19, 2-(Benzo[b]thiophen-6-yl)octahydropyrrolo[3,4-c]pyrrole maleate]
- IC50 [1]: < 0.01 µM
- minimal effective dose (mice; [3]): 10 mg/kg

SMILES: CN1CC2C=C(c3cccc4ccccc34)CC2C1 (stereo not shown) [Example 71, 2-methyl-5-(naphthalen-1-yl)-1,2,3,3a,4,6a-hexahydrocyclopenta[c]pyrrole]
- IC50 [1]: < 0.05 µM

SMILES: Cc1cccc(N2CC3CN(C)CC3C2)c1C (stereo not shown) [Example 67, 2-(2,3-dimethylphenyl)-5-methyloctahydropyrrolo[3,4-c]pyrrole oxalate]
- IC50 [1]: < 0.2 µM

SMILES: C1=C(c2cc3ccccc3s2)CC2CNCC12 (stereo not shown) [Example 51, 5-(Benzothiophen-2-yl)-1,2,3,3a,4,6a-hexahydrocyclopenta[c]pyrrole hydrochloride]
- IC50 [1]: < 0.05 µM

SMILES: CN1CC2CN(c3c(F)cc4ccccc4c3F)CC2C1 (stereo not shown) [Example 75, 2-(1,3-difluoronaphthalen-2-yl)-5-methyloctahydropyrrolo[3,4-c]pyrrole dihydrochloride]
- IC50 [1]: < 0.1 µM

SMILES: CN1CC2CN(c3cc4ccccc4cc3F)CC2C1 (stereo not shown) [Example 76, 2-(3-fluoronaphthalen-2-yl)-5-methyloctahydropyrrolo [3,4-c]pyrrole dihydrochloride]
- IC50 [1]: < 0.05 µM

SMILES: C1=C(c2cccc3ccccc23)CC2CNCC12 (stereo not shown) [Example 56, 5-(naphthalen-1-yl)-1,2,3,3a,4,6a-hexahydrocyclopenta[c]pyrrole dihydrochloride]
- IC50 [1]: < 0.05 µM

SMILES: CN1CC2C=C(c3cc4ccccc4s3)CC2C1 (stereo not shown) [Example 61, 5-(Benzothiophen-2-yl)-2-methyl-1,2,3,3a,4,6a-hexahydrocyclopenta[c]pyrrole hydrochloride]
- IC50 [1]: < 0.05 µM
